Results from US5075322A, “Selenophen derivatives, a preparation process of the same and therapeutical compositions containing them” (Societe de Conseils de Recherches et d'Applications …, priority 1989, dated 1991).

Key:
[1] = test system: ovalbumine-induced bronchospasm; assay: ovalbumine-induced bronchospasm in anaesthetized passively sensitized guinea-pigs; format: in vivo
Description: In the ovalbumine-induced bronchospasm in anaesthetized passively sensitized guinea-pigs, compound XI and ketotifen, administered 1 hour before the injection of ovalbumine, inhibit the bronchoconstriction (>90%) in a dose-dependant-manner respectively with following ED50 (P.O.)
For both products, the activity disappears at 24 hours.
The kinetic results, after administration by oral route of the said compounds at 0.1 mg/kg and 0.05 mg/kg (P.O.), for 1 to several hours before ovalbumine injection (1 mg/kg), are reported respectively in tables 1 and 2.
(§1) The different symbols NS, *, ** and *** which may be found in the different tables, mean that the result is respectively not significative, significative, very significative and highly significative.

[2] = test system: ovalbumine-induced bronchospasm; assay: ovalbumine-induced bronchospasm in actively sensitized guinea pigs; format: in vivo; conditions: Table III, 0.1 mg/kg PO
Excerpt: as §1

[3] = test system: ovalbumine-induced bronchospasm; assay: ovalbumine-induced bronchoconstriction in passively sensitized rats; format: in vivo; conditions: for Percentage of bronchoconstriction / Percentage of effect: Table IV
Excerpt: as §1

[4] = test system: histamine induced bronchospasm; assay: histamine-induced bronchospasm in artificially ventilated anaesthetized guinea pigs; format: in vivo; conditions: for % of bronchoconstriction / % of effect: Table V, 0.1 mg/kg PO
Description: as §1
The kinetic results of the administration of compound XI and ketotifen by oral route at 0.1 mg/kg (P.O.), 1 to 27 h histamine injection (15 mg IV), are reported in table 5.

[5] = test system: B.S.A.-induced immune lethality in mice; assay: B.S.A.-induced immune lethality (anaphylactic shock) in actively sensitized mice; format: in vivo
Excerpt: as §1
At the same dose, ketotifen has no effect.

rat washed platelets = assay: PAF-induced aggregation of rat washed platelets in vitro; format: cell-based; conditions: Platelet, PAF 5.10^-10 M
Excerpt: In vitro: effects on aggregation (IC50) induced by PAF (5·10^-10 M), rat washed platelets are as follow: IC50 Compound XI 2.10^-6 M. IC50 Ketotifen 10^-5 M.

PAF induced bronchospasm = assay: PAF-induced bronchospasm in artificially-ventilated anaesthetized guinea pigs; format: in vivo; conditions: for Percentage of bronchoconstriction / Percentage of effect: Table VII, PAF 60 mg/kg IV
Excerpt: as §1

[6] = test system: histamine induced bronchospasm; assay: histamine-induced bronchospasm in artificially ventilated anaesthetized guinea pigs; format: in vivo; conditions: Cavia porcellus, po; administered 1 hour before histamine (15 mg IV), P.O.; read-out: ED 50 (P.O.)
[7] = Table I, 0.1 mg/kg PO, pretreatment 1 h
[8] = Table I, 0.1 mg/kg PO, pretreatment 3 h
[9] = Table I, 0.1 mg/kg PO, pretreatment 6 h
[10] = Table I, 0.1 mg/kg PO, pretreatment 9 h
[11] = Table I, 0.1 mg/kg PO, pretreatment 15 h
[12] = Table I, 0.1 mg/kg PO, pretreatment 18 h
[13] = Table I, 0.1 mg/kg PO, pretreatment 21 h
[14] = Table I, 0.1 mg/kg PO, pretreatment 24 h
[15] = Table II, 0.05 mg/kg PO, pretreatment 1 h
[16] = Table II, 0.05 mg/kg PO, pretreatment 3 h
[17] = Table II, 0.05 mg/kg PO, pretreatment 6 h
[18] = Table II, 0.05 mg/kg PO, pretreatment 9 h
[19] = Table II, 0.05 mg/kg PO, pretreatment 15 h
[20] = Table II, 0.05 mg/kg PO, pretreatment 18 h
[21] = Table II, 0.05 mg/kg PO, pretreatment 21 h

CN1CCC(=C2c3ccccc3CC(=O)c3sccc32)CC1 [ketotifen]
time at which the activity disappears ([1]; 0.1 mg/kg and 0.05 mg/kg P.O.): 24 h | ED50 ([1]; Cavia porcellus, po, administered 1 hour before ovalbumine, P.O., passively sensitized guinea-pigs, read-out: ED50 (P.O.)): 0.0941 µmol/kg | % of bronchoconstriction [1, 7]: 8.3 ± 3.2% | % of effect [1, 7]: -90.2 ± 3.8% | % of bronchoconstriction [1, 8]: 7.3 ± 3.0% | % of effect [1, 8]: -88.3 ± 4.8% | % of bronchoconstriction [1, 9]: 31.9 ± 17.9% | % of effect [1, 9]: -48.8 ± 28.8% | % of bronchoconstriction [1, 10]: 66.9 ± 19.7% | % of effect [1, 10]: -25.1 ± 22.0% | % of bronchoconstriction [1, 11]: 77.5 ± 10.6% | % of effect [1, 11]: -5.9 ± 13.3% | % of bronchoconstriction [1, 12]: 54.0 ± 18.6% | % of effect [1, 12]: -44.3 ± 19.2% | % of bronchoconstriction [1, 13]: 88.3 ± 7.6% | % of effect [1, 13]: -8.8 ± 7.9% | % of bronchoconstriction [1, 14]: 67.3 ± 15.0% | % of effect [1, 14]: +8.3 ± 24.0% | % of bronchoconstriction [1, 15]: 44.9 ± 15.9% | % of effect [1, 15]: -49.2% | % of bronchoconstriction [1, 16]: 5.7 ± 1.7% | % of effect [1, 16]: -93.6% | % of bronchoconstriction [1, 17]: 82.9 ± 14.0% | % of effect [1, 17]: -14.3% | % of bronchoconstriction [1, 18]: 80.3 ± 19.7% | % of effect [1, 18]: -17.1% | % of bronchoconstriction [1, 19]: 64.3 ± 18.3% | % of effect [1, 19]: -2.4% | % of bronchoconstriction [1, 20]: 100 ± 0% | % of effect [1, 20]: +2.0% | % of bronchoconstriction [1, 21]: 94.4 ± 3.2% | % of effect [1, 21]: -3.2% | inhibition of bronchoconstriction ([1]; administered 1 hour before ovalbumine, P.O., dose-dependent): > 90% | % of bronchoconstriction ([2]; pretreatment 1 h): 3.6 ± 1.2% | % of effect ([2]; pretreatment 1 h): -95.8 ± 1.4% | % of bronchoconstriction ([2]; pretreatment 3 h): 3.3 ± 0.5% | % of effect ([2]; pretreatment 3 h): -95.6 ± 0.7% | % of bronchoconstriction ([2]; pretreatment 6 h): 42.1 ± 19.3% | % of effect ([2]; pretreatment 6 h): -43.9 ± 25.8% | % of bronchoconstriction ([2]; pretreatment 9 h): 83.2 ± 16.1% | % of effect ([2]; pretreatment 9 h): -8.8 ± 17.6% | % of bronchoconstriction ([2]; pretreatment 15 h): 77.5 ± 14.8% | % of effect ([2]; pretreatment 15 h): -9.0 ± 17.4% | % of bronchoconstriction ([2]; pretreatment 18 h): 64.5 ± 19.5% | % of effect ([2]; pretreatment 18 h): +17.9 ± 35.7% | % of bronchoconstriction ([2]; pretreatment 21 h): 73.6 ± 15.5% | % of effect ([2]; pretreatment 21 h): +34.4 ± 28.5% | Percentage of bronchoconstriction ([3]; 0.1 mg/kg PO): 24.7 ± 5.1% | Percentage of effect ([3]; 0.1 mg/kg PO): -31.0% | Percentage of bronchoconstriction ([3]; 1 mg/kg PO): 46.3 ± 11.0% | Percentage of effect ([3]; 1 mg/kg PO): +29.3% | inhibition of bronchoconstriction (in words) ([3]; passively sensitized rats): has no effect | % of bronchoconstriction ([4]; 1 h): 2.1 ± 0.8% | % of effect ([4]; 1 h): -97.4 ± 1.0% | % of bronchoconstriction ([4]; 3 h): 0% | % of effect ([4]; 3 h): -100 ± 0% | % of bronchoconstriction ([4]; 6 h): 18.2 ± 13.3% | % of effect ([4]; 6 h): -77.8 ± 16.2% | % of bronchoconstriction ([4]; 9 h): 22.1 ± 14.1% | % of effect ([4]; 9 h): -71.5 ± 14.1% | % of bronchoconstriction ([4]; 15 h): 51.4 ± 16.7% | % of effect ([4]; 15 h): -26.9 ± 16.7% | % of bronchoconstriction ([4]; 18 h): 54.6 ± 13.3% | % of effect ([4]; 18 h): -39.8 ± 14.8% | % of bronchoconstriction ([4]; 21 h): 46.6 ± 14.9% | % of effect ([4]; 21 h): -44.9 ± 17.6% | % of bronchoconstriction ([4]; 24 h): 63.7 ± 15.1% | % of effect ([4]; 24 h): -3.0 ± 23.1% | % of bronchoconstriction ([4]; 27 h): 83.4 ± 5.9% | inhibition of bronchoconstriction (in words) ([4]; administered 1 hour before histamine (15 mg IV)): inhibit significantly the bronchoconstriction in a dose-dependant-manner | duration of maximum effect ([4]; during only the first hours, 0.1 mg/kg P.O.): 3 h | Mortality at 24 hours, % of mortality ([5]; 0.250 mg/kg PO): 50% | Mortality at 24 hours, % of variation ([5]; 0.250 mg/kg PO): -18.7% | Mortality at 24 hours, number of killed ([5]; 0.250 mg/kg PO): 5/10 | protective effect (in words) ([5]; 0.275 mg/kg P.O.): has no effect | Mortality at 24 hours, % of mortality ([5]; 0.500 mg/kg PO): 40% | Mortality at 24 hours, % of variation ([5]; 0.500 mg/kg PO): -35% | Mortality at 24 hours, number of killed ([5]; 0.500 mg/kg PO): 4/10 | IC50 (rat washed platelets): 10 µM | inhibition of PAF induced bronchospasm (in words) (PAF induced bronchospasm; 1 hour before PAF, 0.1 mg/kg): less active | Percentage of bronchoconstriction (PAF induced bronchospasm; 0.1 mg/kg PO): 63.5 ± 9.6% | Percentage of effect (PAF induced bronchospasm; 0.1 mg/kg PO): -18.9% | Percentage of bronchoconstriction (PAF induced bronchospasm; 1 mg/kg PO): 26.2 ± 14.8% | Percentage of effect (PAF induced bronchospasm; 1 mg/kg PO): -66.5% | ED50 [6]: 0.0635 µmol/kg

COc1ccc(CCN2CCC(Nc3nc4ccccc4n3Cc3ccc(F)cc3)CC2)cc1 [Astemizole]
Percentage of bronchoconstriction ([3]; 5 mg/kg PO): 8.6 ± 2.5% | Percentage of effect ([3]; 5 mg/kg PO): -76.0%

c1ccc2c(c1)Sc1ccccc1N2CC1CN2CCC1CC2 (stereo not drawn) [Mequitazine]
Mortality at 24 hours, % of mortality ([5]; 2.5 mg/kg PO): 30% | Mortality at 24 hours, % of variation ([5]; 2.5 mg/kg PO): -51.2% | Mortality at 24 hours, number of killed ([5]; 2.5 mg/kg PO): 3/10 | Mortality at 24 hours, % of mortality ([5]; 10 mg/kg PO): 30% | Mortality at 24 hours, % of variation ([5]; 10 mg/kg PO): -51.2% | Mortality at 24 hours, number of killed ([5]; 10 mg/kg PO): 3/10
